Measured values: the NIST ThermoML archive (doi:10.1021/acs.jced.7b00148)

Settings: Liquid; for vapor or sublimation pressure: Closed cell (Static) method; for Critical pressure: Direct measurement; for Critical temperature: Visual observation in an unstirred cell

C=C(C)CC [2-methyl-1-butene]
Settings | Critical pressure [kPa] | Critical temperature [K] | vapor or sublimation pressure [kPa]
– | 3652 | 467.9 | –
299.27 K | – | – | 85
323.65 K | – | – | 190
341.18 K | – | – | 312
353.77 K | – | – | 431
366.06 K | – | – | 579
368.18 K | – | – | 608
375.63 K | – | – | 717
386.21 K | – | – | 898
398.5 K | – | – | 1149
409.28 K | – | – | 1402
419.65 K | – | – | 1695
429.02 K | – | – | 1985
431.24 K | – | – | 2065
438.39 K | – | – | 2316
448.46 K | – | – | 2723
457.43 K | – | – | 3118
460.55 K | – | – | 3271
463.37 K | – | – | 3409
465.49 K | – | – | 3523
467.9 K | – | – | 3652

C=CC(C)C [3-methyl-1-butene]
Settings | Critical pressure [kPa] | Critical temperature [K] | vapor or sublimation pressure [kPa]
– | 3463 | 451.38 | –
302.9 K | – | – | 140
323.75 K | – | – | 264
336.44 K | – | – | 374
350.65 K | – | – | 533
358.2 K | – | – | 635
371.6 K | – | – | 855
382.88 K | – | – | 1073
390.84 K | – | – | 1255
399 K | – | – | 1458
405.25 K | – | – | 1632
413.2 K | – | – | 1874
420.56 K | – | – | 2113
431.03 K | – | – | 2509
439.9 K | – | – | 2885
445.14 K | – | – | 3138
447.76 K | – | – | 3260
450.48 K | – | – | 3407
451.38 K | – | – | 3463

CC=C(C)C [2-methyl-2-butene]
Settings | Critical pressure [kPa] | Critical temperature [K] | vapor or sublimation pressure [kPa]
– | 3686 | 477.47 | –
307.63 K | – | – | 87
325.06 K | – | – | 157
340.98 K | – | – | 249
350.14 K | – | – | 321
364.85 K | – | – | 463
372.91 K | – | – | 560
380.97 K | – | – | 673
389.83 K | – | – | 811
397.89 K | – | – | 954
408.17 K | – | – | 1167
422.67 K | – | – | 1524
430.83 K | – | – | 1758
439.09 K | – | – | 2021
448.36 K | – | – | 2349
453.3 K | – | – | 2541
454.71 K | – | – | 2600
461.46 K | – | – | 2884
464.08 K | – | – | 3006
470.72 K | – | – | 3327
471.73 K | – | – | 3377
473.04 K | – | – | 3442
475.16 K | – | – | 3556
477.47 K | – | – | 3686

C=CCCC [1-pentene]
Settings | Critical pressure [kPa] | Critical temperature [K] | vapor or sublimation pressure [kPa]
– | 3585 | 466.59 | –
297.86 K | – | – | 84
327.08 K | – | – | 216
336.14 K | – | – | 279
346.92 K | – | – | 372
356.19 K | – | – | 468
356.89 K | – | – | 474
366.77 K | – | – | 600
377.34 K | – | – | 757
387.42 K | – | – | 933
394.67 K | – | – | 1085
399.61 K | – | – | 1193
403.03 K | – | – | 1269
411.19 K | – | – | 1472
420.96 K | – | – | 1752
426.1 K | – | – | 1915
436.17 K | – | – | 2255
439.5 K | – | – | 2373
445.74 K | – | – | 2622
452.59 K | – | – | 2902
456.52 K | – | – | 3081
457.93 K | – | – | 3152
460.95 K | – | – | 3294
462.87 K | – | – | 3389
463.77 K | – | – | 3443
466.59 K | – | – | 3585
